Values quoted from earlier work as cited in the PKSmart pharmacokinetics tables (Seal et al. 2025).

Assay: Lombardo, Berellini, Obach 2018, Drug Metab Dispos 46:1466, doi 10.1124/dmd.118.082966
Conditions: human; for MRT / clearance / half-life / Vd: in vivo, iv; for fraction unbound: plasma

| SMILES | MRT | clearance | half-life | fraction unbound | Vd |
| --- | --- | --- | --- | --- | --- |
| CO[C@@H]1[C@@H](O[C@@H]2O[C@H](C)[C@@H](O[C@H]3C[C@@](C)(O)[C@@H](O)[C@H](C)O3)[C@H](N(C)C)[C@H]2O)[C@@H](CC=O)C[C@@H](C)[C@@H](O[C@H]2CC[C@@H](N(C)C)[C@H](C)O2)C=CC=CC[C@@H](C)OC(=O)C[C@H]1O | 7 h | 0.768 L/h/kg | 5.2 h | 0.26 | – |
| CN[C@@H]1[C@@H](O)[C@@H](O[C@@H]2[C@@H](O)[C@H](O[C@H]3OC(CN)=CC[C@H]3N)[C@@H](N)C[C@H]2N)OC[C@]1(C)O | 3.2 h | 0.06 L/h/kg | 2.4 h | 0.15 | 0.19 L/kg |
| CCCCC1=NC2(CCCC2)C(=O)N1Cc1ccc(-c2ccccc2-c2nnn[nH]2)cc1 | 6.8 h | 0.138 L/h/kg | 14 h | 0.1 | 0.94 L/kg |
| CO[C@@H]1C[C@@](C)(O)Cc2cc3c(c(O)c21)C(=O)c1c(O)cc2c(c1C3=O)O[C@@H]1O[C@]2(C)[C@@H](O)[C@@H](N(C)C)[C@@H]1O | 13.1 h | 0.697 L/h/kg | 13.2 h | – | 9.14 L/kg |
| C[C@H]1O[C@H](O[C@H]2[C@H](O)[C@@H](O)[C@@H](OC(C(=O)C(O)CO)[C@H](O)CO)O[C@@H]2CO)[C@H](O)[C@@H](O)[C@@H]1N[C@H]1C=C(CO)[C@@H](O)[C@H](O)[C@H]1O (some centres not stated) | 2.4 h | 0.132 L/h/kg | 2.7 h | – | 0.32 L/kg |
| C[n+]1ccccc1C=NO | 1.5 h | 0.54 L/h/kg | 1.4 h | 1 | 0.8 L/kg |
| Nc1nc(=O)c2ncn(CCC(CO)CO)c2[nH]1 | 2.4 h | 0.504 L/h/kg | 2.1 h | – | 1.1 L/kg |
| Nc1nc(-n2cc(C(=O)O)c(=O)c3cc(F)c(N4CC(O)C4)c(Cl)c32)c(F)cc1F | 2.5 h | 0.14 L/h/kg | 2.1 h | – | 0.35 L/kg |
| CN1CCOC(c2ccccc2)c2ccccc2C1 (configuration not stated) | 8.1 h | 0.72 L/h/kg | 5 h | – | 5.6 L/kg |
| CC1(C)S[C@@H]2C(NC(=O)C(NC(=O)N3CCN(/N=C/c4ccco4)C3=O)c3ccc(O)cc3)C(=O)N2C1C(=O)O (some centres not stated) | 0.92 h | 0.217 L/h/kg | 1.3 h | – | 0.2 L/kg |
| COc1ccsc1CNCC[C@@]1(c2ccccn2)CCOC2(CCCC2)C1 | 1.9 h | 0.413 L/h/kg | 1.8 h | – | 0.78 L/kg |
| C[C@@H]([C@@](O)(Cn1cncn1)c1ccc(F)cc1F)S(C)(=O)=O | 54 h | 0.0114 L/h/kg | 49 h | – | 0.62 L/kg |
| CCOc1ccccc1O[C@H](c1ccccc1)[C@H]1CNCCO1 | 13 h | 0.0492 L/h/kg | 10 h | – | 0.65 L/kg |
| O=C(O)C1O[C@@H](Oc2cc3oc(-c4ccc(O)cc4)cc(=O)c3c(O)c2O)[C@H](O)[C@@H](O)[C@@H]1O (some centres not stated) | 0.31 h | 2.79 L/h/kg | 1.18 h | 0.1 | 0.88 L/kg |
| N=C(N)NC(=O)c1cnn(-c2cccc3ncccc23)c1C1CC1 | 1.3 h | – | 2 h | – | 1.7 L/kg |
| CSCO[C@H]1C[C@H]2OC[C@@]2(OC(C)=O)[C@H]2[C@H](OC(=O)c3ccccc3)[C@]3(O)C[C@H](OC(=O)C(O)C(NC(=O)c4ccccc4)c4ccccc4)C(C)=C(C(OC(C)=O)C(=O)[C@]12C)C3(C)C (some centres not stated) | 29 h | 0.384 L/h/kg | 32 h | – | 11 L/kg |
| CCN(CC)CCOC(=O)C(Cc1cccc2ccccc12)CC1CCCO1 (configuration not stated) | 1.5 h | 0.648 L/h/kg | 1.35 h | 0.2 | 0.98 L/kg |
| CC[C@@H](CO)NC(=O)C1C=C2c3cccc4[nH]cc(c34)C[C@H]2N(C)C1 (some centres not stated) | 2.25 h | 0.431 L/h/kg | 1.85 h | – | 0.96 L/kg |
| CCN1CC(CCN2CCOCC2)C(c2ccccc2)(c2ccccc2)C1=O (configuration not stated) | 3.7 h | 0.318 L/h/kg | 4.1 h | – | 1.2 L/kg |
| CCOC(=O)C1(c2ccccc2)CCN(CCC(O)c2ccccc2)CC1 (configuration not stated) | 4.32 h | 1.32 L/h/kg | 3.22 h | – | 5.7 L/kg |
| CC#CCn1c(N2CCC[C@@H](N)C2)nc2c1c(=O)n(Cc1nc(C)c3ccccc3n1)c(=O)n2C | 140 h | 0.114 L/h/kg | 129 h | – | 16 L/kg |
| C=CCc1ccccc1OCC(O)CNC(C)C (configuration not stated) | 3.6 h | 0.9 L/h/kg | 2.5 h | – | 3.2 L/kg |
| C[C@H]1c2cccc(O)c2C(=O)C2=C(O)[C@]3(O)C(=O)C(C(N)=O)=C(O)[C@@H](N(C)C)[C@@H]3[C@@H](O)[C@@H]21 | 25 h | 0.0276 L/h/kg | 14 h | – | 0.69 L/kg |
| Nc1ccn([C@@H]2O[C@H](CO)C[C@@H]2F)c(=O)n1 | 1.9 h | 0.366 L/h/kg | 1.8 h | 1 | 0.7 L/kg |

| SMILES | MRT | clearance | half-life | fraction unbound | Vd |
| --- | --- | --- | --- | --- | --- |
| O=S(=O)(O)CCS | 0.52 h | 1.23 L/h/kg | 0.36 h | – | 0.65 L/kg |
| Nc1nc(Cl)nc2c1ncn2[C@H]1C[C@H](O)[C@@H](CO)O1 | 9.2 h | 0.84 L/h/kg | 16 h | 0.79 | 7.7 L/kg |
| OC[C@@H](O)[C@@H](O)[C@H](O)[C@H](O)CO | 3.5 h | 0.072 L/h/kg | 4.7 h | – | 0.24 L/kg |
| CNS(=O)(=O)Cc1ccc2[nH]cc(CCCN3CCN(c4ncncc4OC)CC3)c2c1 | 2.25 h | 0.386 L/h/kg | 5.26 h | – | 0.87 L/kg |
| CCC[C@@H]1CC(C(=O)N[C@@H]([C@H]2O[C@H](SC)[C@H](O)[C@@H](O)[C@H]2O)[C@@H](C)O)N(C)C1 (some centres not stated) | 7.5 h | 0.126 L/h/kg | 5.6 h | – | 1 L/kg |
| O=C(O[C@H]1C[C@H]2CC3C[C@@H](C1)N2CC3=O)c1c[nH]c2ccccc12 | 0.19 h | – | 0.13 h | 0.49 | 2 L/kg |
| CN[C@@H]1[C@@H](O)[C@@H](O[C@@H]2[C@@H](O)[C@H](O[C@H]3O[C@H]([C@@H](C)N)CC[C@H]3N)[C@@H](N)C[C@H]2N)OC[C@]1(C)O | – | – | – | 1 | – |
| CC(O)Cn1cnc2c1c(=O)n(C)c(=O)n2C (configuration not stated) | 8.39 h | 0.0702 L/h/kg | 7.8 h | – | 0.59 L/kg |
| Cc1c(F)c(N2CCN[C@H](C)C2)cc2c1c(=O)c(C(=O)O)cn2C1CC1 | – | 0.354 L/h/kg | 9.2 h | 0.82 | – |
| C[C@@H](O[C@H]1OCCN(Cc2n[nH]c(=O)[nH]2)[C@H]1c1ccc(F)cc1)c1cc(C(F)(F)F)cc(C(F)(F)F)c1 | – | – | 13 h | – | 0.94 L/kg |
| CN/C(=N\CCSCc1nc[nH]c1C)NC#N | 2.5 h | 0.486 L/h/kg | 2.2 h | – | 1.2 L/kg |
| N[C@@]1(C(=O)O)CS(=O)(=O)[C@H]2C(C(=O)O)[C@H]21 (some centres not stated) | 1.44 h | 0.144 L/h/kg | 1.23 h | – | 0.21 L/kg |
| CN(C)[C@@H]1C(O)=C(C(N)=O)C(=O)[C@@]2(O)C(O)=C3C(=O)c4c(O)ccc(Cl)c4[C@@H](O)[C@H]3C[C@@H]12 | 17 h | 0.066 L/h/kg | 12 h | 0.59 | 1.3 L/kg |
| CNC(=O)Nc1c(OCCN2CCCC2)c(OC)c2occc2c1OC | 4.2 h | 0.192 L/h/kg | 5 h | – | 0.8 L/kg |
| CC(C)(C)NC[C@@H](O)COc1cccc2c1CCC(=O)N2 | – | 0.606 L/h/kg | 4.7 h | – | – |
| COc1cc([S+](C)O)ccc1-c1nc2cnccc2[n-]1 (configuration not stated) | 1.3 h | 1.24 L/h/kg | 1.2 h | 0.48 | 1.67 L/kg |
| CC(=O)N1CCN([C@H]2CCN(C(=O)N(C)[C@H](C)c3cc(C(F)(F)F)cc(C(F)(F)F)c3)[C@@H](c3ccc(F)cc3C)C2)CC1 | 15 h | 0.184 L/h/kg | 15.6 h | 1 | 2.77 L/kg |
| C[C@@H]1C[C@H]2[C@@H]3C[C@H](F)C4=CC(=O)C=C[C@]4(C)[C@H]3[C@@H](O)C[C@]2(C)C1C(=O)CO (some centres not stated) | 1.6 h | 0.42 L/h/kg | 1.3 h | 0.04 | 0.68 L/kg |
| Cc1[nH]c2ccccc2c1CCNCc1ccc(/C=C/C(O)=NO)cc1 | – | 0.612 L/h/kg | 13.1 h | 0.1 | – |
| CC1C(=O)O[C@H]2C[C@@]34[C@H]5C[C@@H](C(C)(C)C)C36C(O)C(=O)O[C@H]6OC4(C(=O)O5)[C@@]12O (some centres not stated) | 4.6 h | 0.138 L/h/kg | 3.8 h | – | 0.62 L/kg |
| CCNC(=O)C1C[C@@H](n2ccc3c(N[C@H](CC)Cc4sccc4Cl)ncnc32)[C@H](O)[C@@H]1O (some centres not stated) | 1.18 h | 0.72 L/h/kg | 1.33 h | 0.03 | 0.84 L/kg |
| CC(C)(C)NCC(O)COc1cccc2c1CC(O)C(O)C2 (configuration not stated) | 11 h | 0.174 L/h/kg | 9.2 h | 0.14 | 1.9 L/kg |
| O=C(Cc1cccs1)NC1C(=O)N2C(C(=O)[O-])=C(C[n+]3ccccc3)CS[C@H]12 (some centres not stated) | 2.3 h | 0.198 L/h/kg | 1.5 h | 0.8 | 0.46 L/kg |
